Laboratory results: patent US20260241039A1, “FLUORESCENT PROBES FOR MAGL” (Hoffmann-La Roche Inc., priority 2022, published 2026)

What follows are substances tested against T1, hMAGL (Homo sapiens, UniProt Q99685) (assay: 2-AG assay: MAGL inhibitory activity, hydrolysis of 2-arachidonoylglycerol to arachidonic acid followed by mass spectrometry). Conditions: 15 min pre-incubation at RT, 30 min reaction at RT, 8 μM 2-arachidonoylglycerol.
T1 sequence (Q99685 1-303): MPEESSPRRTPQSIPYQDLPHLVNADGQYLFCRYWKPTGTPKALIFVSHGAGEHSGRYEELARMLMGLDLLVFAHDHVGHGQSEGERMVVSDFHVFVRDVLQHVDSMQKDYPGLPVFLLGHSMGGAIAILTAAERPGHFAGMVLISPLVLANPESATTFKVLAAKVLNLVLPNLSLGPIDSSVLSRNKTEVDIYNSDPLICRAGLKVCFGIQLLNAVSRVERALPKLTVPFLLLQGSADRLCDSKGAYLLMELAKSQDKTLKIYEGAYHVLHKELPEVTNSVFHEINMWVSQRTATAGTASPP
Assay type: biochemical
Procedure: Compounds were profiled for MAGL inhibitory activity by determining the enzymatic activity by following the hydrolysis of the natural substrate 2-arachidonoylglycerol (2-AG) resulting in arachidonic acid, which can be followed by mass spectrometry. This assay is hereinafter abbreviated “2-AG assay”.
The 2-AG assay was carried out in 384 well assay plates (PP, Greiner Cat #784201) in a total volume of 20 μL. Compound dilutions were made in 100% DMSO (VWR Chemicals 23500.297) in a polypropylene plate in 3-fold dilution steps to give a final concentration range in the assay from 12.5 μM to […]. 0.25 μL compound dilutions (100% DMSO) were added to 9 μL MAGL in assay buffer (50 mM TRIS (GIBCO, 15567-027), 1 mM EDTA (Fluka, 03690-100 mL), 0.01% (v/v) Tween. After shaking, the plate was incubated for 15 min at RT. To start the reaction, 10 μL 2-arachidonoylglycerol in assay buffer was added. The final concentrations in the assay was […] and 8 μM 2-arachidonoylglyerol. After shaking and 30 min incubation at RT, the reaction was quenched by the addition of 40 μL of ACN containing 4 μM of d8-arachidonic acid. The amount of arachidonic acid was traced by an online SPE system (Agilent Rapidfire) coupled to a triple quadrupole mass spectrometer (Agilent 6460). A C18 SPE cartridge (G9205A) was used in an ACN/water liquid setup. The mass spectrometer was operated in negative electrospray mode following the mass transitions 303.1→259.1 for arachidonic acid and 311.1→267.0 for d8-arachidonic acid. The activity of the compounds was calculated based on the ratio of intensities [arachidonic acid/d8-arachidonic acid].

Row | Substance | IC50
1 | (4aR,8aS)-6-(7-((5,5-difluoro-5H-4λ^4, 5λ^4-dipyrrolo[1,2-c:2,1′-f][1,3,2]diazaborinin-10-yl)methyl)-2-azaspiro[3.5]nonane-2-carbonyl)hexahydro-2H-pyrido[4,3-b][1,4]oxazin-3(4H)-one [Example 19] | 2.35 nM
2 | (4aR,8aS)-6-(7-((5,5-difluoro-5H-4λ^4, 5λ^4-dipyrrolo[1,2-c:2,1′-f][1,3,2]diazaborinin-10-yl)methylene)-2-azaspiro[3.5]nonane-2-carbonyl)hexahydro-2H-pyrido[4,3-b][1, 4]oxazin-3(4H)-one [Example 18] | 0.64 nM
3 | (4aR,8aS)-6-(7-((5,5-difluoro-5H-4λ^4, 5λ^4-dipyrrolo[1,2-c:2,1′-f][1,3,2]diazaborinin-10-yl)oxy)-2-azaspiro[3.5]nonane-2-carbonyl)hexahydro-2H-pyrido[4,3-b][1,4]oxazin-3(4H)-one [Example 10] | 3.82 nM
4 | (6-(3-cyclopropyl-1H-1,2,4-triazol-1-yl)-2-azaspiro[3.3]heptan-2-yl)(6-((5,5-difluoro-5H-4λ^4,5λ^4-dipyrrolo[1,2-c:2,1′-f][1,3,2]diazaborinin-10-yl)methyl)-2-azaspiro[3.3]heptan-2-yl)methanone [Example 25] | 0.34 nM
5 | (6-((5,5-difluoro-5H-424, 5λ^4-dipyrrolo[1,2-c:2′,1′-f][1,3,2]diazaborinin-10-yl)methyl)-2-azaspiro[3.3]heptan-2-yl)(4-(5-methyloxazolo[4,5-b]pyridin-2-yl)piperazin-1-yl)methanone [Example 26] | 17.2 nM
6 | (R)-4-(3-(6-((5,5-difluoro-5H-4λ^4,5λ^4-dipyrrolo[1,2-c:2′,1′-f][1,3,2]diazaborinin-10-yl)methyl)-2-azaspiro[3.3]heptan-2-yl)-3-oxopropyl)oxazolidin-2-one [Example 28] | 1.01 nM
